Data published in PubChem BioAssay AID1918939 (Molecular Pharmacology Branch, DTP, NCI, 2023).
“And” between values parts separate entries of the source, which are not always exact repeats. Identical values can stand only once.

Test system: 653999-131-R-J2-PDC complex spheroid viability
Assay: Anticancer human tumor 653999-131-R-J2-PDC patient-derived lung adenocarcinoma cell line growth inhibition
Conditions: for viability, T/C: stronger effect = lower value
From the text: Multicellular complex tumor spheroid response to LSD1 Inhibitor Iadademstat in combination with a variety of drugs and investigational agents in selected tumor cell lines
The current study was undertaken to assess response to LSD1 inhibitors in combination with standard-of-care drugs and investigational agents in solid tumor complex spheroid models as well as in the K-562 leukemia. Complex spheroids include a stromal component modeled by human endothelial cells (HUVEC) and fibroblasts modeled by human mesenchymal stem cells (MSCs). The concentration ranges selected for each drug and investigational agent were based upon clinically achievable concentrations if the clinical Cmax of the agent was known.
Compounds. The drugs and investigational agents used in this study are listed on Table 1. All of the agents used, including staurosporine (NSC755774) and gemcitabine (NSC613327), were obtained from the Developmental Therapeutics Program, NCI. FDA-approved anticancer drugs are available from the NCI at http://dtp.nci.nih.gov/branches/dscb/oncology_drugset_explanation.html. Drugs and investigational agents were >95% pure by proton nuclear magnetic resonance (NMR) and liquid chromatography/mass spectrometry (LC/MS). Stock solutions were prepared at 400x in DMSO, stored at -70 degrees C, and diluted in fresh medium prior to their use. The final concentration of DMSO in cell culture wells never exceeded 0.25% (v/v). The FDA-approved anticancer drug set is available from the Developmental Therapeutics Program at https://dtp.cancer.gov/organization/dscb/obtaining/available_plates.htm. All drugs and investigational agents were tested over a range starting from a high concentration at or near the clinical Cmax and decreasing in half-log increments. If the clinical Cmax for an agent had not been determined, the highest concentration tested was 10 microM.
Cell Lines. The patient-derived cancer cell (PDC) lines: 292921-168-R-J2-PDC, K24384-001-R-PDC, and 521955-158-R2-J5-PDC pancreatic carcinomas, 556581-035-R-J1 ovarian carcinoma, 324938-238-R-J1-PDC, 855422-203-R-J1-PDC and 883617-216-R-J1-PDC urothelial bladder carcinomas, 743489-274-T-PDC renal cell carcinoma, 138582-R-J1 Merkel cell tumor, K60290-347-R-J1 and K57222-313-R-J1-PDC glioblastomas, 653999-131-R-J2-PDC, LG0703-F948-PDC, and 349418-098-R-PDC non-small cell lung carcinomas, 885512-296-R-J2-PDC, 171881-019-R-J1-PDC breast carcinomas and 186277-243-T-J2-PDC and 233499-124-R-J2-PDC colon carcinomas were obtained from the NCI Patient-Derived Models Repository (PDMR, https://pdmr.cancer.gov). The established cell lines NCI/ADR-RES (RRID:CVCL_14520 and OVCAR-5 (RRID:CVCL_1628) ovarian carcinomas, 786-O (RRID:CVCL_1051) and A498 (RRID:CVCL_A498) renal cell carcinoma, NCI-H211 (ATCC, cat. CRL-5824; RRID:CVCL_1529), NCI-H196 (ATCC, cat. CRL-5823, RRID:CVCL_1509), SW 1271 (ATCC, cat. CRL-2177, RRID:CVCL_1716) and NCI-H1876 (ATCC, cat. CRL-5902, RRID:CVCL_1503) small cell lung carcinomas, MDA-MB-231 (RRID:CVCL_0062) and MDA-MB-468 (RRID:CVCL_0419)breast carcinomas (10-12). Pooled donor human umbilical vein endothelial cells (HUVEC, Lonza, cat. CC-2519) and human mesenchymal stem cells (hMSC, Lonza, cat. PT-2501) were purchased from Lonza (Walkersville, MD).
Cell Culture. All cells were maintained in an incubator at 37 degrees C and 5% CO2 with 95% humidity. The PDC lines were cultured according to standard operating procedures established by the NCI PDMR (https://pdmr.cancer.gov). Briefly all PDCs were thawed and cultured in Matrigel-coated flasks prepared with a working solution of 1X Ham's F-12 nutrient mix, without supplementation (Invitrogen, Waltham, MA, cat. 11765054), 100 U/mL penicillin-streptomycin (Invitrogen, cat. 15140122), and 2.5% Matrigel (Corning Inc., Corning, NY, cat. 354248) for the first three passages. […]

[1] = curve of first compound, second compound 0.1 µM
[2] = curve of first compound, second compound 0.316 µM
[3] = curve of first compound, second compound 1 µM
[4] = curve of first compound, second compound 3.16 µM
[5] = curve of first compound, second compound 10 µM
[6] = second compound 0.1 µM, first compound 0.000949 µM
[7] = second compound 0.1 µM, first compound 0.003 µM
[8] = second compound 0.1 µM, first compound 0.00949 µM
[9] = second compound 0.1 µM, first compound 0.03 µM
[10] = second compound 0.1 µM, first compound 0.0949 µM
[11] = second compound 0.1 µM, first compound 0.3 µM
[12] = second compound 0.316 µM, first compound 0.000949 µM
[13] = second compound 0.316 µM, first compound 0.003 µM
[14] = second compound 0.316 µM, first compound 0.00949 µM
[15] = second compound 0.316 µM, first compound 0.03 µM
[16] = second compound 0.316 µM, first compound 0.0949 µM
[17] = second compound 0.316 µM, first compound 0.3 µM
[18] = second compound 1 µM, first compound 0.000949 µM
[19] = second compound 1 µM, first compound 0.003 µM
[20] = second compound 1 µM, first compound 0.00949 µM
[21] = second compound 1 µM, first compound 0.03 µM
[22] = second compound 1 µM, first compound 0.0949 µM
[23] = second compound 1 µM, first compound 0.3 µM
[24] = second compound 3.16 µM, first compound 0.000949 µM
[25] = second compound 3.16 µM, first compound 0.003 µM
[26] = second compound 3.16 µM, first compound 0.00949 µM
[27] = second compound 3.16 µM, first compound 0.03 µM
[28] = second compound 3.16 µM, first compound 0.0949 µM
[29] = second compound 3.16 µM, first compound 0.3 µM
[30] = second compound 10 µM, first compound 0.000949 µM
[31] = second compound 10 µM, first compound 0.003 µM
[32] = second compound 10 µM, first compound 0.00949 µM
[33] = second compound 10 µM, first compound 0.03 µM
[34] = second compound 10 µM, first compound 0.0949 µM
[35] = second compound 10 µM, first compound 0.3 µM
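Also: spheroids exposed to agents for seven days before readout.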

`CCc1c2c(nc3ccc(O)cc13)-c1cc3c(c(=O)n1C2)COC(=O)[C@]3(O)CC` + NC1CCC(NC2CC2c2ccccc2)CC1 was tested, and the IC50 [1] was < 0.949 nM, the IC50 [2] was < 0.949 nM and the IC50 [3] was < 0.949 nM. For the same molecule, the IC50 [4] was < 0.949 nM, the IC50 [5] was < 0.949 nM and the viability, T/C [6] was 22%. It also gave a viability, T/C [7] of 13.8%, a viability, T/C [8] of 11.8% and a viability, T/C [9] of 7.96%. It also gave a viability, T/C [10] of 5.01%, a viability, T/C [11] of 5% and a viability, T/C [12] of 19.8%. It also gave a viability, T/C [13] of 15.9%, a viability, T/C [14] of 9.62% and a viability, T/C [15] of 7.91%. The viability, T/C [16] was 3.58%, the viability, T/C [17] was 6.63% and the viability, T/C [18] was 21.6%. For the same molecule, the viability, T/C [19] was 15.2%, the viability, T/C [20] was 9.88% and the viability, T/C [21] was 7.86%. It also gave a viability, T/C [22] of 4.29%, a viability, T/C [23] of 4.06% and a viability, T/C [24] of 22.2%. It also gave a viability, T/C [25] of 17.5%, a viability, T/C [26] of 12.6% and a viability, T/C [27] of 7.56%. The viability, T/C [28] was 4.32%, the viability, T/C [29] was 3.82% and the viability, T/C [30] was 25.5%. The viability, T/C [31] was 15.8%, the viability, T/C [32] was 9.94% and the viability, T/C [33] was 6.03%. It also gave a viability, T/C [34] of 2.71% and a viability, T/C [35] of 2.44%.

For `CC1(C)CCC(CN2CCN(c3ccc(C(=O)NS(=O)(=O)c4ccc(NCC5CCOCC5)c([N+](=O)[O-])c4)c(Oc4cnc5[nH]ccc5c4)c3)CC2)=C(c2ccc(Cl)cc2)C1`, the viability, T/C (compound 0.0316 µM) was 92.8% and 101%, the viability, T/C (compound 0.1 µM) was 106% and 102% and the viability, T/C (compound 0.316 µM) was 97% and 104%. For the same molecule, the viability, T/C (compound 1 µM) was 83.8% and 97.2%, the viability, T/C (compound 3.16 µM) was 92.2% and 85.6% and the viability, T/C (compound 10 µM) was 60.5% and 26.7%. The IC50 (curve of compound) was > 10000 nM and 6320 nM.

In the case of `CC(C)CC(NC(=O)CNC(=O)c1cc(Cl)ccc1Cl)B1OC(=O)CC(CC(=O)O)(C(=O)O)O1` (stereo not given), the viability, T/C (compound 0.000316 µM) is reported as 101% and 110%, the viability, T/C (compound 0.001 µM) is reported as 108% and 115% and the viability, T/C (compound 0.00316 µM) is reported as 92.6% and 107%. The viability, T/C (compound 0.01 µM) was 56.9% and 74.5%, the viability, T/C (compound 0.0316 µM) was 25.3% and 34.1% and the viability, T/C (compound 0.1 µM) was 5.14% and 18.5%. The IC50 (curve of compound) was 13.4 nM and 19.9 nM.

In the case of `COc1cc(C2c3cc4c(cc3C(OC3OC5COC(C)OC5C(O)C3O)C3COC(=O)C23)OCO4)cc(OC)c1O` (stereo not given), the viability, T/C (compound 0.00949 µM) is reported as 80.5% and 89.5%, the viability, T/C (compound 0.03 µM) is reported as 76.5% and 74.9% and the viability, T/C (compound 0.0949 µM) is reported as 64.3% and 57.3%. For the same molecule, the viability, T/C (compound 0.3 µM) was 42.8% and 45.1%, the viability, T/C (compound 0.949 µM) was 37.4% and 36.7% and the viability, T/C (compound 3 µM) was 25.3% and 27.8%. The IC50 (curve of compound) was 230 nM and 199 nM.

`Nc1ccccc1NC(=O)c1ccc(CNC(=O)OCc2cccnc2)cc1` was tested, and the viability, T/C (compound 0.00949 µM) was 100% and 112%, the viability, T/C (compound 0.03 µM) was 73.8% and 105% and the viability, T/C (compound 0.0949 µM) was 75% and 76.2%. For the same molecule, the viability, T/C (compound 0.3 µM) was 56.3% and 69.2%, the viability, T/C (compound 0.949 µM) was 38.6% and 20.9% and the viability, T/C (compound 3 µM) was 11.8% and 1.21%. For the same molecule, the IC50 (curve of compound) was 402 nM and 414 nM.

In the case of `Nc1ncn(C2CC(O)C(CO)S2)c(=O)n1` (stereo not given) + NC1CCC(NC2CC2c2ccccc2)CC1, the IC50 [1] is reported as > 300 nM, the IC50 [2] is reported as > 300 nM and the IC50 [3] is reported as > 300 nM. The IC50 [4] was > 300 nM, the IC50 [5] was > 300 nM and the viability, T/C [6] was 83.8%. It also gave a viability, T/C [7] of 109%, a viability, T/C [8] of 90.8% and a viability, T/C [9] of 74.8%. It also gave a viability, T/C [10] of 70.4%, a viability, T/C [11] of 50.6% and a viability, T/C [12] of 86.6%. For the same molecule, the viability, T/C [13] was 81.6%, the viability, T/C [14] was 87.5% and the viability, T/C [15] was 74.5%. The viability, T/C [16] was 58%, the viability, T/C [17] was 51.9% and the viability, T/C [18] was 89.5%. It also gave a viability, T/C [19] of 94%, a viability, T/C [20] of 86.3% and a viability, T/C [21] of 78.7%. It also gave a viability, T/C [22] of 67.8%, a viability, T/C [23] of 55.5% and a viability, T/C [24] of 99%. It also gave a viability, T/C [25] of 92%, a viability, T/C [26] of 85.8% and a viability, T/C [27] of 81.3%. For the same molecule, the viability, T/C [28] was 68.2%, the viability, T/C [29] was 54.7% and the viability, T/C [30] was 88.9%. The viability, T/C [31] was 112%, the viability, T/C [32] was 88.8% and the viability, T/C [33] was 84.7%. The viability, T/C [34] was 63.7% and the viability, T/C [35] was 58.6%.

In the case of `CC[C@@]1(O)C(=O)OCc2c1cc1n(c2=O)Cc2cc3c(CN(C)C)c(O)ccc3nc2-1`, the viability, T/C (compound 0.000316 µM) is reported as 108% and 99%, the viability, T/C (compound 0.001 µM) is reported as 88.5% and 100% and the viability, T/C (compound 0.00316 µM) is reported as 66% and 83.8%. For the same molecule, the viability, T/C (compound 0.01 µM) was 41.8% and 55.4%, the viability, T/C (compound 0.0316 µM) was 34.3% and 41.5% and the viability, T/C (compound 0.1 µM) was 22.4% and 29.9%. The IC50 (curve of compound) was 7.34 nM and 15.4 nM.
